Data published in paper PMC10238325, “Optimization of antimicrobial peptides for the application against biocorrosive bacteria” (Applied Microbiology and Biotechnology, 2023).
Converted amounts (≈) assume the structure as drawn. Where a SMILES comes first, the peptide text is derived from it. Where no end group is shown, it is not given here.

Tests used:
[1] = system: Desulfovibrio desulfuricans DSM 642; type: cell-based; conditions: DSM 642, 48 h
Method: (§1) The following SRB were used: Desulfovibrio vulgaris DSM 644, Desulfovibrio desulfuricans DSM 642, and Desulfovibrio indonesiensis DSM 15121. The Postgate medium (DSMZ medium 63) with a modification of 0.004 g/L FeSO4 × 7 H2O and 0.3 g/L Tri-sodium citrate (and 2% NaCl for D. indonesiensis) was flushed with nitrogen gas. Each culture was subcultured 1:100. Cultivation occurred for 48 h, 37 °C (30 °C for D. desulfuricans), without shaking. The following SOB was used: Thiomonas intermedia DSM 18155. Therefore, the Thiomonas medium (DSMZ medium 35a) was used, subcultured 1:100, and cultivated for 48 h, 30 °C, 115 rpm. Escherichia coli K12 ATCC 25404 was grown in LB Lennox medium (Carl Roth GmbH & Co.KG Karlsruhe, Germany) for 18 h, 37 °C, 115 rpm and diluted 1:1000 in Mueller-Hinton broth (Carl Roth GmbH & Co.KG Karlsruhe, Germany). Incubation during the assay took place for 24 h, 37 °C, 115 rpm.
(§2) A stock solution of 1 mg/mL in milliQ from the respective peptide and a concentration range of 1000–1.95 μg/mL was prepared by serial 2-fold dilution. 20 μL of each test substance (n=3) per well was added to a 96-well microtiter plate (polystyrene). 100 μL of each bacteria suspension (start OD600: 0.001) was added to the well with test substance, as well as 120 μL as growth control (n=35) and 120 μL medium (n=1) as sterile control to an empty well. To avoid evaporation, all microtiter plates were cultivated in air-tight containers during the incubation period. Microtiter plates for testing on SRB were prepared in the anaerobic chamber (Coy Laboratory Products Inc. Grass Lake, United States of America) and cultivated in air-tight containers including Oxoid anaerobic bag (Thermo Fisher Scientific Inc. Waltham, United States of America) to ensure anaerobic conditions. The microtiter plates were measured before and after incubation at OD600, and the growth inhibition in % was determined with the following equation:1 inhibition%=ΔOD600testsubstance/ΔOD600growthcontrole∙100%
(§3) The minimum inhibitory concentration (MIC) describes the lowest concentration where no bacterial growth could be detected. Besides the MIC100, where a complete reduction of bacterial growth could be detected, other partial inhibitions such as MIC95 or MIC50, where 95% or 50% growth inhibition occurs, can be specified.

[2] = system: Desulfovibrio vulgaris DSM 644; type: cell-based; conditions: for MIC95 D. vulgaris: 95% growth inhibition, 96-well microdilution, 2-fold series 1000–1.95 μg/mL, n=3, OD600, modified Postgate medium, anaerobic
Method: as §1, §2, §3

[3] = system: Thiomonas intermedia DSM 18155; type: cell-based; conditions: DSM 18155, 48 h
Method: as §1, §2, §3

[4] = system: Desulfovibrio indonesiensis DSM 15121; experiment: MIC assay against D. indonesiensis; type: cell-based; conditions: 95% growth inhibition; 96-well microdilution, n=3, OD600; modified Postgate medium with 2% NaCl, anaerobic, 48 h, 37 °C, without shaking
Method: as §1, §2, §3

[5] = in vitro; type: in vitro ADME, Desulfovibrio vulgaris; conditions: for remaining at 48 h, 1 mg/mL / remaining at 168 h, 1 mg/mL: cells or culture medium
Method: The analysis of the peptides was performed on a RP-HPLC (Agilent 1100, detector: diode array detector G1315A, column: Phenomenex®-Aeris™ 2.6 μm Peptide XB-C18 100 Å,150 × 2.1 mm), and ESI-LC-MS was performed (Knauer, detector: Surveyor MSQ, column: Eurospher II 100-2 C18A, 100 × 2 mm, 2 μm). The gradient was performed with a flow rate of 0.25 mL/min from 99% of mobile phase A (0.1% TFA in milliQ) over 15 min to 95% of mobile phase B (0.1% TFA in acetonitrile), kept at 95% with B for 2 min, and equilibrated at 99% with A for another 3 min. 20 μL (RP-HPLC) and 10 μL (ESI-LC-MS) peptide solution (250 μg/mL in milliQ) was injected.
For the stability tests, a bacterial suspension (7 days old) of D. vulgaris was centrifuged at 5000 rpm for 10 min. 1 mg/mL peptide solution was prepared within the supernatant and incubated at 37 °C for 7 days. The respective aliquots (t=0, 48, 72, 168 h) were mixed 1:10 with quenching solution (milliQ + 0.08% trifluoroacetic acid) and analyzed in triplicates according to the protocol described above for RP-HPLC. In addition, after incubation in the supernatant (168 h), the peptide (P3.2.) was analyzed for activity using the MIC assay.

[6] = system: SRB; conditions: ref Greene et al. [2006]; cited from earlier work
Source text: The current strategy to control microbial-influenced corrosion is based on biocides, which lead to fast resistance, requiring higher and higher concentrations to eradicate the bacteria. Alternative treatment strategies are based on additives like D-amino acids or chelates to biocides to reduce the required biocide concentration by a synergistic effect. However, these additives are not inhibitory on their own, and although a reduced biocide concentration is required, the presence of biocide is still necessary (Jia et al. [2017]; Wen et al. [2012]; Wen et al. [2009]). In this paper, a new method ...

Molecule | MIC50 D. desulfuricans [1] | MIC95 D. vulgaris ([2]; 48 h, 37 °C, without shaking) | MIC95 D. indonesiensis [4] | remaining at 48 h, 1 mg/mL [5] | remaining at 168 h, 1 mg/mL [5] | other results
CC[C@H](C)[C@H](NC(=O)[C@H](CCCNC(=N)N)NC(=O)[C@H](CS)NC(=O)[C@H](CC(C)C)NC(=O)[C@@H](N)CCCNC(=N)N)C(=O)N[C@H](C(=O)N[C@H](C(=O)N[C@H](C(=O)N[C@@H](CCCNC(=N)N)C(=O)N[C@H](C(=O)N[C@@H](CS)C(=O)N[C@@H](CCCNC(=N)N)C(=O)O)C(C)C)[C@@H](C)CC)C(C)C)C(C)C [Bactenecin] (H-RLCRIVVIRVCR-OH; N-terminus and C-terminus assumed) | 250 µg/mL (≈ 168 µM) | 62.5 µg/mL (≈ 42.1 µM) | 31.25 µg/mL (≈ 21 µM) | 41% | 17% | MIC50 T. intermedia [3]: 62.5 µg/mL (≈ 42.1 µM); stability in supernatant (in words) [5]: significant stability loss after only 48 h
CC(C)C[C@H](NC(=O)[C@H](CC(C)C)NC(=O)[C@H](CCCCN)NC(=O)[C@H](CCCCN)NC(=O)[C@H](CC(C)C)NC(=O)[C@H](Cc1c[nH]c2ccccc12)NC(=O)[C@H](CCCCN)NC(=O)[C@H](Cc1c[nH]c2ccccc12)NC(=O)[C@H](CC(C)C)NC(=O)[C@H](CCCCN)NC(=O)[C@H](CCCCN)NC(=O)CCCCCN)C(N)=O [Peptide P3.2.] (HELM PEPTIDE1{[NCCCCCC(=O)[*:2]].K.K.L.W.K.W.L.K.K.L.L.[am]}$$$$V2.0) | 250 µg/mL (≈ 157 µM) | 15.63 µg/mL (≈ 9.79 µM) | 125 µg/mL (≈ 78.3 µM) | 99% | 85% | MIC50 D. vulgaris after incubation in supernatant ([2]; DSM 644, 168 h): 31.25 µg/mL (≈ 19.6 µM); MIC95 D. vulgaris after incubation in supernatant ([2]; peptide (1 mg/mL) first incubated 168 h in D. vulgaris supernatant, then dilution series, 48 h, 37 °C, without shaking): 62.5 µg/mL (≈ 39.2 µM)
CC(C)C[C@H](NC(=O)[C@H](CC(C)C)NC(=O)[C@H](CCCCN)NC(=O)[C@H](CCCCN)NC(=O)[C@H](CC(C)C)NC(=O)[C@H](Cc1c[nH]c2ccccc12)NC(=O)[C@H](CCCCN)NC(=O)[C@H](Cc1c[nH]c2ccccc12)NC(=O)[C@H](CC(C)C)NC(=O)[C@H](CCCCN)NC(=O)[C@H](CCCCN)NC(=O)CCCCCCCN)C(N)=O [Peptide P3.3.] (HELM PEPTIDE1{[NCCCCCCCC(=O)[*:2]].K.K.L.W.K.W.L.K.K.L.L.[am]}$$$$V2.0) | 250 µg/mL (≈ 154 µM) | – | – | – | – | –
CCCCCCCCCC(=O)N[C@@H](CCCCN)C(=O)N[C@@H](CCCCN)C(=O)N[C@@H](CC(C)C)C(=O)N[C@@H](Cc1c[nH]c2ccccc12)C(=O)N[C@@H](CCCCN)C(=O)N[C@@H](Cc1c[nH]c2ccccc12)C(=O)N[C@@H](CC(C)C)C(=O)N[C@@H](CCCCN)C(=O)N[C@@H](CCCCN)C(=O)N[C@@H](CC(C)C)C(=O)N[C@@H](CC(C)C)C(N)=O [Peptide P3.4.] (HELM PEPTIDE1{[CCCCCCCCCC(=O)[*:2]].K.K.L.W.K.W.L.K.K.L.L.[am]}$$$$V2.0) | 125 µg/mL (≈ 76.3 µM) | 31.25 µg/mL (≈ 19.1 µM) | 31.25 µg/mL (≈ 19.1 µM) | – | – | –
CCCCCCCCCCCC(=O)N[C@@H](CCCCN)C(=O)N[C@@H](CCCCN)C(=O)N[C@@H](CC(C)C)C(=O)N[C@@H](Cc1c[nH]c2ccccc12)C(=O)N[C@@H](CCCCN)C(=O)N[C@@H](Cc1c[nH]c2ccccc12)C(=O)N[C@@H](CC(C)C)C(=O)N[C@@H](CCCCN)C(=O)N[C@@H](CCCCN)C(=O)N[C@@H](CC(C)C)C(=O)N[C@@H](CC(C)C)C(N)=O [Peptide P3.5.] (HELM PEPTIDE1{[CCCCCCCCCCCC(=O)[*:2]].K.K.L.W.K.W.L.K.K.L.L.[am]}$$$$V2.0) | 62.5 µg/mL (≈ 37.5 µM) | 62.5 µg/mL (≈ 37.5 µM) | 31.25 µg/mL (≈ 18.8 µM) | – | – | –
CCCCCCCCCCCCCC(=O)N[C@@H](CCCCN)C(=O)N[C@@H](CCCCN)C(=O)N[C@@H](CC(C)C)C(=O)N[C@@H](Cc1c[nH]c2ccccc12)C(=O)N[C@@H](CCCCN)C(=O)N[C@@H](Cc1c[nH]c2ccccc12)C(=O)N[C@@H](CC(C)C)C(=O)N[C@@H](CCCCN)C(=O)N[C@@H](CCCCN)C(=O)N[C@@H](CC(C)C)C(=O)N[C@@H](CC(C)C)C(N)=O [Peptide P3.6.] (HELM PEPTIDE1{[CCCCCCCCCCCCCC(=O)[*:2]].K.K.L.W.K.W.L.K.K.L.L.[am]}$$$$V2.0) | 125 µg/mL (≈ 73.8 µM) | 125 µg/mL (≈ 73.8 µM) | 62.5 µg/mL (≈ 36.9 µM) | – | – | –
O=S(=O)([O-])[O-].OC[P+](CO)(CO)CO.OC[P+](CO)(CO)CO [THPS, tetrakis(hydroxymethyl)phosphonium sulfate] | – | – | – | – | – | concentration required to inhibit SRB growth [6]: 40 µg/mL
Ac-KKLWKWLKKLL-NH2 [Peptide P3.1.] | 500 µg/mL | 31.25 µg/mL | 125 µg/mL | – | – | –
FFGKVLKLIRKIF [DASamP1] | 500 µg/mL | – | – | 99% | – | MIC50 T. intermedia [3]: 125 µg/mL
FKKFWKWFRRF [Peptide S6L3-33] | 500 µg/mL | – | – | 93% | 85% | MIC50 T. intermedia [3]: 62.5 µg/mL
KKLLKWLKKLL [Peptide L5K5W] | >1000 µg/mL | – | – | 91% | 80% | MIC50 T. intermedia [3]: 500 µg/mL
KKLWKWLKKLL [Peptide L5K5W-W4I6] | >1000 µg/mL | – | – | 94% | 86% | –
KKLWKWLKKLL-NH2 [Peptide P2.1.] | 250 µg/mL | – | – | – | – | –
RRLWRWLRRLL [Peptide P1.1.] | 1000 µg/mL | – | – | – | – | –
